Laboratory results: US9708316B2 (BRISTOL-MYERS SQUIBB COMPANY, priority 2014, dated 2017)
Like-named read-outs stand apart in the source and are kept apart here.

Assays:
HIS-TGFβR2 WT = HIS-TGFβR2 WT (Homo sapiens, UniProt P37173); assay: HTRF probe-displacement assay, HIS-TGFβR2 WT; assay type: binding
HIS-TGFβR1 T204D = molecular target: T1, HIS-TGFβR1 T204D (Homo sapiens, UniProt P36897, T204D); assay: HTRF probe-displacement assay, HIS-TGFβR1 T204D; assay type: binding; settings: read-out: TGFβR1 (μM) IC50
T1 sequence (P36897 34-503 T204D): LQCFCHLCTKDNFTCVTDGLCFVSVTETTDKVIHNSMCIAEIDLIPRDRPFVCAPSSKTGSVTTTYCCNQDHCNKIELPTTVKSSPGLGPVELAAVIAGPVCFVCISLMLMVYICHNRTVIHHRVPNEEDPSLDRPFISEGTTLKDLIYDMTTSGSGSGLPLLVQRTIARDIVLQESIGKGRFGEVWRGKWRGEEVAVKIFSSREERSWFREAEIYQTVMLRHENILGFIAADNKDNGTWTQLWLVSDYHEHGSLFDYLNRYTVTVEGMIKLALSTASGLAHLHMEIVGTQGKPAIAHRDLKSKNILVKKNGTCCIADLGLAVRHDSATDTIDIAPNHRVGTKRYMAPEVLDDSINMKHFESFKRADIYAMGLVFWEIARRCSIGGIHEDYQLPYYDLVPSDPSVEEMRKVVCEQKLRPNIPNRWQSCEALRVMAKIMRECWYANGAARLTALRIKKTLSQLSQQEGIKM

Sequence of HIS-TGFβR2 WT (P37173 23-567): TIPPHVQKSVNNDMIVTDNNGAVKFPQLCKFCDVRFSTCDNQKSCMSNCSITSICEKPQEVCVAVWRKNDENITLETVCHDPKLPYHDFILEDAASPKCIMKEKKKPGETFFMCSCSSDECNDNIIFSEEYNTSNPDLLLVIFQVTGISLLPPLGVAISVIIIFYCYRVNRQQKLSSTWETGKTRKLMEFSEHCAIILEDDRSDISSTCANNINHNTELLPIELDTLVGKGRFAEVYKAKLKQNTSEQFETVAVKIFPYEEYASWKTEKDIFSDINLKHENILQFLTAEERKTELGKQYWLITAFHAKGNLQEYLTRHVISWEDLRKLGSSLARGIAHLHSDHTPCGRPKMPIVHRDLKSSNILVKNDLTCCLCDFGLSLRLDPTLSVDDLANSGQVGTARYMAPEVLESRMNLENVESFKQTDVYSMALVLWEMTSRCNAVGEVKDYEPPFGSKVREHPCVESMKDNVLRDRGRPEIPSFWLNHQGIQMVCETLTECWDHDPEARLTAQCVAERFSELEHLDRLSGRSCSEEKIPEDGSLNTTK

Structure (SMILES)	IC50 (HIS-TGFβR2 WT) [µM]	IC50 (HIS-TGFβR1 T204D) [µM]	IC50 (HIS-TGFβR1 T204D; 1 nM HIS-TGFβR1 T204D, labeled probe at Kd, 1 hour room temperature, eleven concentrations) [µM]
COc1ccc(-c2c(-c3ccnc(NC(=O)CN4CCN(CCO)CC4)c3)[nH]c3cc(Cl)cnc23)cn1 [Example 235, N-(4-(6-Chloro-3-(6-methoxypyridin-3-yl)-1H-pyrrolo[3,2-b]pyridin-2-yl)pyridin-2-yl)-2-(4-(2-hydroxyethyl)piperazin-1-yl)acetamide]	0.176	0.001	
CC(=O)Nc1cc(-c2[nH]c3cc(Cl)cnc3c2-c2ccc(Cl)cn2)ccn1 [Example 46, N-{4-[6-Chloro-3-(5-chloropyridin-2-yl)-1H-pyrrolo[3,2-b]pyridin-2-yl]pyridin-2-yl}acetamide]	> 15	0.008	
COc1cnc2c(-c3cccc(Cl)n3)c(-c3ccnc(NC(C)=O)c3)[nH]c2c1 [Example 48, N-{4-[3-(6-Chloropyridin-2-yl)-6-methoxy-1H-pyrrolo[3,2-b]pyridin-2-yl]pyridin-2-yl}acetamide]	0.076	0.001	
CCCNCc1cnc2c(-c3ccc(OC)cn3)c(-c3ccnc(NC(C)=O)c3)[nH]c2c1 [Example 294, N-(4-(3-(5-methoxypyridin-2-yl)-6-((propylamino)methyl)-1H-pyrrolo[3,2-b]pyridin-2-yl)pyridin-2-yl)acetamide]	> 15	0.063	
COc1cnc2c(-c3ccc(Cl)cn3)c(-c3ccnc(NC(C)=O)c3)[nH]c2c1 [Example 50, N-{4-[3-(5-Chloropyridin-2-yl)-6-methoxy-1H-pyrrolo[3,2-b]pyridin-2-yl]pyridin-2-yl}acetamide]	6.57	0.003	
O=C(CN1CCC(O)CC1)Nc1cc(-c2[nH]c3cc(Cl)cnc3c2-c2ccc(F)cn2)ccn1 [Example 244, N-(4-(6-Chloro-3-(5-fluoropyridin-2-yl)-1H-pyrrolo[3,2-b]pyridin-2-yl)pyridin-2-yl)-2-(4-hydroxypiperidin-1-yl)acetamide]	7.82	0.003	
COc1ccc(-c2c(-c3ccnc(N)c3)[nH]c3cc(Cl)cnc23)cn1 [Example 289, 4-(6-Chloro-3-(6-methoxypyridin-3-yl)-1H-pyrrolo[3,2-b]pyridin-2-yl)pyridin-2-amine]	0.794	0.002	
COc1ccc(-c2c(-c3ccnc(NC(C)=O)c3)[nH]c3cc(C#N)cnc23)cn1 [Example 78, N-(4-(6-Cyano-3-(6-methoxypyridin-3-yl)-1H-pyrrolo[3,2-b]pyridin-2-yl)pyridin-2-yl)acetamide]	0.16	0.003	
COc1ccc(-c2c(-c3ccnc(NC(=O)CN4CCN(CCO)CC4)c3)[nH]c3cc(Cl)cnc23)nc1 [Example 252, N-(4-(6-Chloro-3-(5-methoxypyridin-2-yl)-1H-pyrrolo[3,2-b]pyridin-2-yl)pyridin-2-yl)-2-(4-(2-hydroxyethyl)piperazin-1-yl)acetamide]	> 15	0.001	
[2H]C([2H])([2H])Oc1ccc(-c2c(-c3ccnc(NC(C)=O)c3)[nH]c3cc(F)cnc23)nc1 [Example 106, N-(4-(6-Fluoro-3-(5-(methoxy-d3)pyridin-2-yl)-1H-pyrrolo[3,2-b]pyridin-2-yl)pyridin-2-yl)acetamide]			0.003
CC(=O)Nc1cc(-c2[nH]c3cc(OC4COC4)cnc3c2-c2cccc(C(F)F)n2)ccn1 [Example 99, N-(4-(3-(6-(Difluoromethyl)pyridin-2-yl)-6-(oxetan-3-yloxy)-1H-pyrrolo[3,2-b]pyridin-2-yl)pyridin-2-yl)acetamide]	2.75		
COCC(C)Oc1cnc2c(-c3cccc(C(F)F)n3)c(-c3ccnc(NC(C)=O)c3)[nH]c2c1 (centres unmarked) [Example 103]	4.92		
COc1cnc2c(-c3csc(C#N)n3)c(-c3ccnc(NC(C)=O)c3)[nH]c2c1 [Example 228, N-(4-(3-(2-Cyanothiazol-4-yl)-6-methoxy-1H-pyrrolo[3,2-b]pyridin-2-yl)pyridin-2-yl)acetamide]	4.24		
CC(=O)Nc1cc(-c2[nH]c3cc(Cl)cnc3c2-c2csc(C)n2)ccn1 [Example 181, N-(4-(6-Chloro-3-(2-methylthiazol-4-yl)-1H-pyrrolo[3,2-b]pyridin-2-yl)pyridin-2-yl)acetamide]	1.07		

Results, then the molecule that gave them:

IC50 (HIS-TGFβR2 WT) [µM]	IC50 (HIS-TGFβR1 T204D) [µM]	IC50 (HIS-TGFβR1 T204D; 1 nM HIS-TGFβR1 T204D, labeled probe at Kd, 1 hour room temperature, eleven concentrations) [µM]	Structure (SMILES)
0.75	0.002		CC(=O)Nc1cc(-c2[nH]c3c([C@H](C)O)ccnc3c2-c2cccc(C(F)F)n2)ccn1 (single isomer, unassigned) [Example 147]
4.29			CCOc1cnc2c(-c3cccc(C(F)F)n3)c(-c3ccnc(NC(C)=O)c3)[nH]c2c1 [Example 101, N-(4-(3-(6-(Difluoromethyl)pyridin-2-yl)-6-ethoxy-1H-pyrrolo[3,2-b]pyridin-2-yl)pyridin-2-yl)acetamide]
> 15	0.145		CC(=O)Nc1cc(-c2[nH]c3cccnc3c2-c2ccc(C(F)F)cn2)ccn1 [Example 108, N-(4-(3-(5-(Difluoromethyl)pyridin-2-yl)-1H-pyrrolo[3,2-b]pyridin-2-yl)pyridin-2-yl)acetamide]
0.594	0.0017		CC(=O)Nc1cc(-c2[nH]c3c(C)ccnc3c2-c2ncc(C)s2)ccn1 [Example 218, N-(4-(7-Methyl-3-(5-methylthiazol-2-yl)-1H-pyrrolo[3,2-b]pyridin-2-yl)pyridin-2-yl)acetamide]
2.62			[2H]C([2H])([2H])Oc1cnc2c(-c3cccc(C(F)F)n3)c(-c3ccnc(NC(C)=O)c3)[nH]c2c1 [Example 100, N-(4-(3-(6-(Difluoromethyl)pyridin-2-yl)-6-(methoxy-d3)-1H-pyrrolo[3,2-b]pyridin-2-yl)pyridin-2-yl)acetamide]
2.53	0.001		CC(=O)Nc1cc(-c2[nH]c3c(C(C)O)ccnc3c2-c2cccc(C(F)F)n2)ccn1 (centres unmarked) [Example 143, N-(4-{3-[6-(Difluoromethyl)pyridin-2-yl]-7-(1-hydroxyethyl)-1H-pyrrolo[3,2-b]pyridin-2-yl}pyridin-2-yl)acetamide]
7.55			COc1ccnc2c(-c3nc(C(F)F)cs3)c(-c3ccnc(NC(C)=O)c3)[nH]c12 [Example 270, N-(4-(3-(4-(Difluoromethyl)thiazol-2-yl)-7-methoxy-1H-pyrrolo[3,2-b]pyridin-2-yl)pyridin-2-yl)acetamide]
5.65			CC(=O)Nc1cc(-c2[nH]c3cc(F)cnc3c2-c2csc(C)n2)ccn1 [Example 207, N-(4-(6-Fluoro-3-(2-methylthiazol-4-yl)-1H-pyrrolo[3,2-b]pyridin-2-yl)pyridin-2-yl)acetamide]
3.45			CC(=O)Nc1cc(-c2[nH]c3cc(OC(C)C)cnc3c2-c2cccc(C(F)F)n2)ccn1 [Example 102, N-(4-(3-(6-(Difluoromethyl)pyridin-2-yl)-6-isopropoxy-1H-pyrrolo[3,2-b]pyridin-2-yl)pyridin-2-yl)acetamide]
5.26			CCc1ccnc2c(-c3cccc(C(F)F)n3)c(-c3ccnc(NC(C)=O)c3)[nH]c12 [Example 128, N-(4-{3-[6-(Difluoromethyl)pyridin-2-yl]-7-ethyl-1H-pyrrolo[3,2-b]pyridin-2-yl}pyridin-2-yl)acetamide]
1.36			COc1ccnc2c(-c3cccc(F)n3)c(-c3ccnc(NC(C)=O)c3)[nH]c12 [Example 273, N-(4-(3-(6-Fluoropyridin-2-yl)-7-methoxy-1H-pyrrolo[3,2-b]pyridin-2-yl)pyridin-2-yl)acetamide]
